Test results from ChEMBL document CHEMBL3804791, “Comparison of small molecules and oligonucleotides that target a toxic, non-coding RNA” (Bioorg Med Chem Lett, 2016).
Calls of active or inactive are those of the source. The rule behind the calls is not given here.

Legend:
C2C12 [1] = assay: Effect on r(CCUG)300 levels in mouse C2C12 cells at 10 uM by RT-qPCR method; assay type: functional, cell-based
C2C12 [2] = assay: Binding affinity to r(CCUG)300 RNA (unknown origin) in mouse C2C12 cells transfected with BIN1 assessed as rescue of BIN1 splicing defect at 10 uM after 72 hrs by PCR analysis; assay type: cell-based
C2C12 [3] = assay: Effect on BIN1 splicing patterns in mouse C2C12 cells at 0.1 to 10 uM by RT-qPCR method; assay type: ADME, cell-based; conditions: c2c12, 10 µM
C2C12 [4] = assay: Effect on BIN1 splicing patterns in mouse C2C12 cells at 1 to 20 uM by RT-qPCR method; assay type: ADME, cell-based; conditions: c2c12, 20 µM
[5] = Binding affinity to 5-biotin-r(CCUG)12 RNA (unknown origin) assessed as inhibition of r(CCUG)12/His6-tagged MBNL1 complex formation preincubated for 15 mins followed by addition of His6-tagged MBNL1 by TR-FRET assay
[6] = Binding affinity to 5-biotin-r(CCUG)12 RNA (unknown origin) assessed as disruption of 5-biotin-r(CCUG)12/His6-tagged MBNL1 complex incubated for 15 mins by TR-FRET assay
C2C12 [7] = assay: Binding affinity to r(CCUG)300 RNA (unknown origin) in mouse C2C12 cells transfected with BIN1 splicing mini gene assessed as rescue of BIN1 splicing defect at 100 nM after 72 hrs by PCR analysis; assay type: cell-based
[8] = Binding affinity to r(CCUG)300 RNA (unknown origin) in mouse C2C12 cells transfected with BIN1 assessed as rescue of BIN1 splicing defect after 72 hrs by PCR analysis; assay type: cell-based

SMILES: CCCN(CC(=O)N(CCC)CC(=O)N(CCC)CC(=O)N(CCC)CC(=O)N(CCCn1cc(CCCC(=O)NC[C@H]2O[C@H](O[C@@H]3[C@@H](O)[C@H](O[C@@H]4O[C@@H](CO)[C@H](O)[C@@H](N)[C@@H]4O)[C@@H](N)C[C@H]3N)[C@H](O)[C@@H](O)[C@@H]2O)nn1)CC(N)=O)C(=O)CNCCCn1cc(CCCC(=O)NC[C@@H]2O[C@@H](O[C@@H]3[C@@H](O)[C@H](O[C@@H]4O[C@@H](CO)[C@H](O)[C@@H](N)[C@@H]4O)[C@@H](N)C[C@H]3N)[C@@H](O)[C@H](O)[C@H]2O)nn1
- Activity (C2C12 [1]): inactive
- Activity (C2C12 [2]): 60%
- Activity (C2C12 [3]): Non-toxic

SMILES: C#CCCCC(=O)NC[C@@H]1O[C@@H](O[C@H]2[C@H](O)[C@@H](O[C@@H]3O[C@@H](CO)[C@H](O)[C@@H](N)[C@@H]3O)[C@H](N)C[C@@H]2N)[C@@H](O)[C@H](O)[C@H]1O
- Activity (C2C12 [1]): inactive
- Activity (C2C12 [2]): 15%
- Activity (C2C12 [4]): Non-toxic

SMILES: C#CCCCC(=O)NC[C@H]1O[C@H](O[C@H]2[C@H](O)[C@@H](O[C@H]3O[C@H](CN=[N+]=[N-])[C@@H](O)[C@H](N)[C@H]3O)[C@H](N)C[C@@H]2N)[C@H](O)[C@@H](O)[C@@H]1O
- Activity (C2C12 [1]): inactive

SMILES: Nc1ccn([C@@H]2C[C@@H](OP(=O)(O)OC[C@H]3O[C@@H](n4cnc5c(N)ncnc54)C[C@@H]3OP(=O)(O)OC[C@H]3O[C@@H](n4cnc5c(=O)[nH]c(N)nc54)C[C@@H]3OP(=O)(O)OC[C@H]3O[C@@H](n4cnc5c(=O)[nH]c(N)nc54)C[C@@H]3OP(=O)(O)OC[C@@H]3O[C@H](n4ccc(N)nc4=O)C[C@H]3OP(=O)(O)OC[C@@H]3O[C@H](n4cnc5c(N)ncnc54)C[C@H]3OP(=O)(O)OC[C@@H]3O[C@H](n4cnc5c(=O)[nH]c(N)nc54)C[C@H]3OP(=O)(O)OC[C@H]3O[C@@H](n4cnc5c(=O)[nH]c(N)nc54)C[C@@H]3O)[C@H](COP(=O)(O)O)O2)c(=O)n1
- IC50 [5]: 700 nM
- IC50 [6]: 830 nM

SMILES: C#CNC(=O)CC(=O)NC[C@H]1O[C@H](O[C@@H]2[C@@H](O)[C@H](O[C@@H]3O[C@@H](CN=[N+]=[N-])[C@H](O)[C@@H](N)[C@@H]3O)[C@@H](N)C[C@H]2N)[C@H](O)[C@@H](O)[C@@H]1O (stereo in doubt)
- Activity (C2C12 [7]): 50%
- IC50 [8]: 80 nM
- Activity (C2C12 [3]): Non-toxic

SMILES: Nc1ccn([C@@H]2C[C@@H](OP(=O)(O)OC[C@H]3O[C@@H](n4cnc5c(N)ncnc54)C[C@@H]3OP(=O)(O)OC[C@H]3O[C@@H](n4cnc5c(=O)[nH]c(N)nc54)C[C@@H]3OP(=O)(O)OC[C@@H]3O[C@H](n4cnc5c(=O)[nH]c(N)nc54)C[C@H]3OP(=O)(O)OC[C@@H]3O[C@H](n4ccc(N)nc4=O)C[C@H]3OP(=O)(O)OC[C@H]3O[C@@H](n4cnc5c(N)ncnc54)C[C@@H]3OP(=O)(O)OC[C@H]3O[C@@H](n4cnc5c(=O)[nH]c(N)nc54)C[C@@H]3OP(=O)(O)OC[C@H]3O[C@@H](n4cnc5c(=O)[nH]c(N)nc54)C[C@@H]3O)[C@H](COP(=O)(O)O[C@H]3C[C@H](n4cnc5c(=O)[nH]c(N)nc54)O[C@@H]3COP(=O)(O)O[C@@H]3C[C@@H](n4cnc5c(=O)[nH]c(N)nc54)O[C@H]3COP(=O)(O)O[C@@H]3C[C@@H](n4cnc5c(N)ncnc54)O[C@H]3COP(=O)(O)O[C@H]3C[C@H](n4ccc(N)nc4=O)O[C@@H]3COP(=O)(O)O)O2)c(=O)n1
- IC50 [5]: 300 nM
- IC50 [6]: 470 nM
